Test results taken from article PMC8187479, “Sugar phosphate activation of the stress sensor eIF2B” (Nature Communications, 2021).

Experiments:
eIF2B(βδγε) = target: T1, eIF2B(βδγε) (Homo sapiens, UniProt P49770+Q9UI10); assay: Isothermal titration calorimetry, eIF2B(βδγε) subcomplex; format: binding; settings: ITC
T1 construct: made in house
Procedure: Interactions between recombinant protein and sugar phosphates were conducted with a MicroCal PEAQ-ITC (Malvern Panalytical Inc.). Experiments were performed in 25 mM HEPES, 150 mM NaCl, pH 7.5 at 20 °C. The sugar phosphate concentration in the syringe was 1 mM or 1.5 mM, and ~3.5 μL aliquots were injected into cells containing 300 μL eIF2Bα or eIF2B(βδγε) at a concentration of 20–30 μM. The final titration curves were fitted using MicroCal ITC data analysis software, assuming a single binding site per monomer.

[1] = target: T2, eIF2B decamer in WT HEK293T lysate (Homo sapiens, UniProt P49770+Q14232+Q9UI10); assay: Sucrose gradient centrifugation, eIF2B complex assembly, WT HEK293T lysate; format: biochemical; settings: 400 mM KCl, 5–20% sucrose gradient
T2 construct: endogenous in cells; host or cells: HEK293T (wild type) lysate
T2 sequence (Q14232 whole entry): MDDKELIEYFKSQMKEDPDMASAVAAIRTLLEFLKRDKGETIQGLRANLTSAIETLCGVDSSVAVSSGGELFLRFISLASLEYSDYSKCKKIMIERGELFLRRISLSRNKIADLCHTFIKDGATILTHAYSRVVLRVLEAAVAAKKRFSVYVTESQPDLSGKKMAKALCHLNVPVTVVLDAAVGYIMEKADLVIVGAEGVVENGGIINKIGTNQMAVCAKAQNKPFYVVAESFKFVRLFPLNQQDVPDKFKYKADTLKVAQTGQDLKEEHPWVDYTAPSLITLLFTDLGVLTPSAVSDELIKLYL
T2 sequence (P49770 whole entry): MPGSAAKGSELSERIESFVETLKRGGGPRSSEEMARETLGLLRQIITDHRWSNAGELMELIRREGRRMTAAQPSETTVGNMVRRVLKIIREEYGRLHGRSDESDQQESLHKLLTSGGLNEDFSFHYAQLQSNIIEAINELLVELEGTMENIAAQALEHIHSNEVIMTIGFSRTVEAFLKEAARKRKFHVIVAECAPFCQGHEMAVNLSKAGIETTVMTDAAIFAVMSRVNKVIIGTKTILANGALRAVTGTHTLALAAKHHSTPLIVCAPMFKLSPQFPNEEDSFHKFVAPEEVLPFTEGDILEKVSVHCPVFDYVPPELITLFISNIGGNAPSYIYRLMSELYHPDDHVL
T2 sequence (Q9UI10 whole entry): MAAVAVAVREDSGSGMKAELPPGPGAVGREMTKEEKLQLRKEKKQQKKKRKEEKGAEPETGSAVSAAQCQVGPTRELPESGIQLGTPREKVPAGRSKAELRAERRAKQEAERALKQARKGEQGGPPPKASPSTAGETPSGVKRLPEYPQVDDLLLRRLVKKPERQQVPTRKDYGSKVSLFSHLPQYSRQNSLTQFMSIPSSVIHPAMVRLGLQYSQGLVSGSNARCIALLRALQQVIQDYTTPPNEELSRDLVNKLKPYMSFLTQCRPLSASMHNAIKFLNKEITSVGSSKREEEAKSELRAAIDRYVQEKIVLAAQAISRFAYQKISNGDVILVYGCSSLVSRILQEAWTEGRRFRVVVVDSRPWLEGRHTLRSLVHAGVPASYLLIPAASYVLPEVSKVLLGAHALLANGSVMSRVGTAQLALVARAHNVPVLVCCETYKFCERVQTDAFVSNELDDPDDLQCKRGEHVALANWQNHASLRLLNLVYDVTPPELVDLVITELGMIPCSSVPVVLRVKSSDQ
T2 sequence (Q9NR50 whole entry partner): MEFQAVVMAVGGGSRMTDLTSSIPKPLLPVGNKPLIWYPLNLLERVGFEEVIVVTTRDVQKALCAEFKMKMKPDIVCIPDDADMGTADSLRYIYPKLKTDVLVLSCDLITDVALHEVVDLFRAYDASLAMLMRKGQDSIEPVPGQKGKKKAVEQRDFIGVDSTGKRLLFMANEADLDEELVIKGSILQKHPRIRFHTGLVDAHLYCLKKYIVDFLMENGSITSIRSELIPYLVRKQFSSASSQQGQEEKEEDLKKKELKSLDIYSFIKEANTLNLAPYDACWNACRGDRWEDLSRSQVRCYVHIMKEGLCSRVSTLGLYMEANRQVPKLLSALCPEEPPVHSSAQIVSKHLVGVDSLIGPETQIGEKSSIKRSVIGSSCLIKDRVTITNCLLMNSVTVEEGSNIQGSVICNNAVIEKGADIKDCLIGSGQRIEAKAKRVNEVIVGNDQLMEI
T2 sequence (Q13144 whole entry partner): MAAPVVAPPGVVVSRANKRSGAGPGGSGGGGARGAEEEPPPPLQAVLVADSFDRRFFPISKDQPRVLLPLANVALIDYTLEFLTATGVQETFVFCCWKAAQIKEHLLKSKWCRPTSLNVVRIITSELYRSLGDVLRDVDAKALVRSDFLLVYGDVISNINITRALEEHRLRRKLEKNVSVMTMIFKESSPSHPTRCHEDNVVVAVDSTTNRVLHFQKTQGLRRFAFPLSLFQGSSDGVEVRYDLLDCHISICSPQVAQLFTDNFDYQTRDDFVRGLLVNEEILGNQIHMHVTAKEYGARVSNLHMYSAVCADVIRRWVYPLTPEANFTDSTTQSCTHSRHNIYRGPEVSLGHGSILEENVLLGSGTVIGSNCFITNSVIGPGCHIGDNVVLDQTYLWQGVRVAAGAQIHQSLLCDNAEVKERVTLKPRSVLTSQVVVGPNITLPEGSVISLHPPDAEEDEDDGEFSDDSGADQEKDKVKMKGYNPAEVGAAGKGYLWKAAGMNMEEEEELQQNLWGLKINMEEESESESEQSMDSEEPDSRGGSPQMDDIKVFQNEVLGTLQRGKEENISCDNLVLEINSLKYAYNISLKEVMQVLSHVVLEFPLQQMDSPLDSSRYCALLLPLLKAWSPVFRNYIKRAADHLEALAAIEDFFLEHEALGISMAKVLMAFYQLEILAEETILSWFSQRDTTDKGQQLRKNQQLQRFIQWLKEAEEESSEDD
Procedure: WT or eIF2Bα mutant HEK293T cells were harvested and lysed in 50 mM HEPES, 400 mM KCl, 1 mM DTT, 4 mM Mg(OAc)2, pH 7.5 + 0.5% Triton-X-100 + EDTA-free protease inhibitor cocktail (Roche) on ice for 30 min. Lysates were cleared by centrifugation at 48,000 × g, 4 °C for 30 min. 100 μL of each cleared lysate was loaded onto a 5–20% sucrose gradient prepared in a 13 × 51 mm ultracentrifuge tube using a Gradient Station (Biocomp) and centrifuged in a SW55 Ti rotor at 152,000 × g, 4 °C for 12 h. After centrifugation, 24 × 200 μL fractions were manually collected from the top to bottom of each gradient. Each fraction was subjected to methanol/chloroform precipitation and SDS-PAGE followed by Western Blot with the indicated antibodies. Blots were imaged on a ChemiDoc MP (Bio-Rad), and band intensities were quantified using the instrument’s Image Lab software. Each value was then divided by total intensity obtained across all fractions to determine percent enrichment of each subunit in each fraction.

eIF2Bα^V183F = target: T3, eIF2Bα^V183F (Homo sapiens, UniProt Q14232, V183F); assay: Size-exclusion chromatography of recombinant eIF2Bα V183F, alone or with eIF2B(βδγε); format: biochemical; settings: SEC, eIF2Bα V183F alone
T3 construct: made in house; host or cells: E. coli BL21(DE3)
T3 sequence (Q14232 1-305 V183F): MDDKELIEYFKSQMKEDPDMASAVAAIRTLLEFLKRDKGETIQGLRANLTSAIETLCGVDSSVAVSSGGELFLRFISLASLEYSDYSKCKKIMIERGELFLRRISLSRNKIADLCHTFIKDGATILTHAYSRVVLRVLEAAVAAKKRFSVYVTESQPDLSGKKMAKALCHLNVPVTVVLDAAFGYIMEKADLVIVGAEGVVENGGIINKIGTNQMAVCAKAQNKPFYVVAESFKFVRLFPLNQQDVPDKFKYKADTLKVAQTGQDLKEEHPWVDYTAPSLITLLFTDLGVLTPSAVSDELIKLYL
Procedure: Purified proteins were thawed and centrifuged at 20,000 × g, 10 min, 4 °C to remove any potential precipitate. Concentrations of eIF2B(βδγε) and eIF2Bα were normalized to 2 μM and 2.4 μM, respectively. 0.2 mL of each mixture was injected onto a Superose 6 Increase 10/300 column connected to an AKTA Pure 25 FPLC system (GE Healthcare). The system was run at 0.5 mL/min for 1 h using 25 mM HEPES, 200 mM KCl, 2 mM MgCl2, 1 mM DTT, pH 7.5 as the mobile phase. For conditions with ISRIB, the protein samples and mobile phase were supplemented with 500 nM ISRIB. For conditions with F6P, the protein samples and mobile phase were supplemented with 200 μM F6P. UV280 measurements were obtained directly by the instrument.

T1 sequence (P49770 whole entry): as the sequence (P49770 whole entry) above
T1 sequence (Q9UI10 whole entry): as the sequence (Q9UI10 whole entry) above
T1 sequence (Q9NR50 whole entry partner): as the sequence (Q9NR50 whole entry partner) above
T1 sequence (Q13144 whole entry partner): as the sequence (Q13144 whole entry partner) above

O=C(CO)[C@@H](O)[C@H](O)[C@H](O)COP(=O)(O)O [F6P, fructose-6-phosphate]
interaction with eIF2B(βδγε) subcomplex (eIF2B(βδγε)): did not interact appreciably | eIF2B decamer formation (migration of eIF2Bα and eIF2Bδ) [1]: induced stabilization of the eIF2B decamer comparable to ISRIB | monomer-to-dimer shift of eIF2Bα V183F (eIF2Bα^V183F): induced a partial shift from the monomer to the dimer peak
